The assay has as its system Spodoptera litura. The experiment in a line: Test for embryos of Spodoptera litura (sweet potato leaf dip). The settings on record: effective ingredient concentration 20 ppm; 3 instar, sweet potato leaves immersed; dead counted after 7 days, 25° C. The assay is classed as in vivo. As to the method:
Preparation of Sample Drug Solution
1 Part by weight of the active compound was mixed with the above-mentioned amount of a solvent containing the above-mentioned amount of emulsifier in order to prepare the formulation of an appropriate active compound, and the mixture was diluted with water to a predetermined concentration.
The leaves of sweet potato were immersed in a sample drug solution which was diluted with water to a predetermined concentration and charged in a petri dish with a diameter of 9 cm after drying the drug solution. 10 of embryos with 3 instar of Spodoptera litura were dropped thereto, the petri dish was placed in a constant temperature chamber at 25° C., the leaves of sweet potato were additionally added after 2 days and 4 days and the number of dead embryos was examined after 7 days to calculate an insecticidal rate.
In the present test, the result of 2 petri dishes per one partition was averaged.

Compound `Cc1cc(C(F)(C(F)(F)F)C(F)(F)F)cc(C)c1NC(=O)c1csc(NC(=O)c2ccccc2Cl)n1` [compound 34, 2-(2-chlorobenzoyl)amino-N-(2,6-dimethyl-4 heptafluoroisopropylphenyl)-1,3-thiazole-4-carboxamide] displayed an insecticidal rate of 100%.

In the case of `Cc1cc(C(F)(C(F)(F)F)C(F)(F)F)cc(C)c1NC(=O)c1csc(NC(=O)c2cccc(Cl)c2)n1` [compound 67, 2-(3-chlorobenzoyl)amino-N-(2,6-dimethyl-4-heptafluoro-isopropylphenyl)-1,3-thiazole-4-carboxamide], the insecticidal rate is 100%.

Values taken from patent publication US7799738B2, “Insecticidal 2-acylaminothiazole-4-carboxamides” (Bayer CropScience AG, priority 2005, dated 2010).
